The source of these data is paper PMC7714071, “Interaction of amyloid beta with humanin and acetylcholinesterase is modulated by ATP” (FEBS Open Bio, 2020).

The test system of one test is Aβ. The settings on record: cited from earlier work. The source says:
Soluble oligomers of proteins implicated in different diseases are primarily thought to be the main toxic form as opposed to the larger fibrillar assemblies. Aβ regions containing Tyr and Ser (H6DSGY10 and G25SNKG29) (Fig. 1) along with post‐translational modifications of these regions, have been implicated in misfolding, oligomerization, or fibril formation of Aβ [5, 10, 11, 16, 41]. […] In addition to ATP, the glycosaminoglycan, heparan sulfate (HS), has been previously reported to i ... || Access to the central domain of Aβ (residues 17–24) flanked by Lys‐16 and Lys‐28, known to be a critical structural element in fibrillar Aβ aggregates, might be regulated by binding of AChE and HN to their overlapping binding sites on Aβ. […] Moreover, we s ...

Test [1] concerns Aβ from A549 cell-conditioned media. The test is described as follows: ELISA, HN (endogenous and exogenously added) and AChE bound to Aβ from A549 media on 82E1 antibody. It is filed as binding, human. The settings on record: Fig. 6A. The procedure: Human NSCLC cell lines, A549 (ATCC CCL‐185) and H1299 (ATCC CRL‐5803), were purchased from the American Type Culture Collection (ATCC, Manassas, VA, USA). Cells were seeded as we reported earlier in 5 mL HyClone Dulbecco's modified Eagle's medium/nutrient mixture F‐12 (DMEM/F12) (GE Healthcare Life Sciences, Pittsburgh, PA, USA), supplemented with 10% Fetalgro bovine growth serum (FBS; RMBIO, Missoula, MT, USA), 50 U·mL^−1 penicillin, and […] streptomycin (Invitrogen, Life Technologies, Carlsbad, CA, USA) in 25‐cm^2 tissue culture flasks, and allowed to grow overnight in an incubator at 37 °C, 95% humidity, and 5% CO2. The cells were counted after trypan blue staining, with a hemocytometer.
ELISAs were carried out as we previously reported. Nunc MaxiSorp 96‐well flat bottom plate (Thermo Fisher) wells were coated with samples as indicated. The plates were incubated overnight at 4 °C on a shaker to allow binding of the samples to the plate wells. After the incubation, the wells were washed 4× with TBST, filled with 400 µL blocking buffer (110 mM KCl, 5 mM NaHCO3, 5 mM MgCl2, 1 mM EGTA, 0.1 mM CaCl2, 20 mM HEPES, 1% BSA, pH 7.4), and incubated with shaking overnight at 4 °C. The wells were then washed 4× with TBST, and 100 µL of sample at the desired concentration was added to each well and incubated with shaking overnight at 4 °C. TBST was then used to wash the wells 4× before proceeding in one of two ways: (a) biotinylated samples were analyzed by adding 100 µL streptavidin–HRP conjugate in TBST (1 : 2500 dilution) to the samples followed by incubation for 3 h at RT on a shaker, or (b) samples without biotin were analyzed by adding 100 µL TBST containing the primary antibody as per the manufacturer's recommendation, incubating for 3 h at RT on a shaker, followed by washing the wells 4× with TBST. The secondary antibody in 100 µL TBST was then added to the samples following the manufacturer's recommendation and incubated for 1 h at RT on a shaker. […] The reaction was stopped with 100 µL 2 M H2SO4 after incubating at RT for 0.5–15 min, resulting in a yellow color change, measured by absorbance at 450 nm. To monitor nonspecific binding, negative control wells on the plates included, for example, bound Aβ peptide then adding all components, streptavidin‐HRP and TMB, but without addition of biotin‐HN. Some wells were coated with 2.5, 10, 50, 100, 500, and 5000 nM biotin‐HN or Aβ to allow conversion of the OD measurements to concentrations of bound material. Before analysis, the OD from the data was corrected for nonspecific binding by subtracting the mean background absorbance for the negative controls. Typically, in control wells incubated on each plate, the background binding is about 10–15% of the maximum binding seen with addition of biotin peptides or antibodies. Statistical analysis was determined by the […] PRISM 8.4.3 software (San Diego, CA, USA). Data were expressed as the mean ± SD. […]
Anti‐Aβ‐specific antibodies (82E1) were added (1 : 1000 dilution) to ELISA plate wells (Fig. 6). The wells were blocked, and then, 300 µL of the conditioned media (0.5 µg·µL^−1) of A549 or H1299 cells, 72 h postserum starvation, was added in the absence or presence of increasing HN concentrations, and the HN and AChE bound were detected using the corresponding specific primary antibodies. Fold change relative to controls that included all components but without the primary antibodies was calculated and fit with a nonlinear regression curve using the […] […]
(In general: In an ELISA, binding on a coated surface is turned into a signal by an enzyme label.)

Take `Nc1ncnc2c1ncn2[C@@H]1O[C@H](COP(=O)(O)OP(=O)(O)OP(=O)(O)O)[C@@H](O)[C@H]1O` [ATP, Adenosine triphosphate]: the “effect on misfolding of Aβ” value with Aβ (physiological intracellular concentrations, enhanced by magnesium) is “reduced misfolding of Aβ”. The “effect of ATP on binding of exogenously added HN to Aβ” value in test [1] (0.1 mM, 1 mM ATP (more pronounced at 1 mM), A549 media) was “decreased binding of exogenously added HN”. For the same compound, the “effect of ATP on binding of Aβ to AChE” value in test [1] (A549 cell-conditioned media, 82E1) is on record as “decreased upon addition of ATP”. Also, the “effect of ATP on binding of endogenous HN to Aβ” value in test [1] (increasing ATP (0.1 mM, 1 mM; more pronounced at 1 mM), A549 media, 82E1) is “increased binding of endogenous HN”.
For Humanin [HN], the “Aβ aggregation in presence of both HN and AChE” value with Aβ (to levels close to HN alone) was “greatly diminished”. Moreover, the “HN concentration at which signal begins to level off” value in test [1] (exogenous HN, A549 media) is listed as “around 50 nM”. In test [1] (increasing exogenous HN, A549 media, 82E1), the “binding of exogenous HN to Aβ” value was “increased binding to Aβ”.
In the case of heparan sulfate [HS], in the test on Aβ, the “effect of HS on Aβ aggregation” value was “increasing their aggregation”.
